# Biological target: T1, ETFFN (EtfAB, FN1533-FN1534) (Fusobacterium polymorphum, UniProt A0A1Z3CIN2+A0A1Z3CJK5)
# T1 construct: gene CBG50_09400; heterodimer, His6 tag on N-terminus of EtfB; EtfA 34,980 Da, tagged EtfB 30,560 Da; E. coli BL21(DE3)
# T1 sequence (A0A1Z3CIN2 1-322): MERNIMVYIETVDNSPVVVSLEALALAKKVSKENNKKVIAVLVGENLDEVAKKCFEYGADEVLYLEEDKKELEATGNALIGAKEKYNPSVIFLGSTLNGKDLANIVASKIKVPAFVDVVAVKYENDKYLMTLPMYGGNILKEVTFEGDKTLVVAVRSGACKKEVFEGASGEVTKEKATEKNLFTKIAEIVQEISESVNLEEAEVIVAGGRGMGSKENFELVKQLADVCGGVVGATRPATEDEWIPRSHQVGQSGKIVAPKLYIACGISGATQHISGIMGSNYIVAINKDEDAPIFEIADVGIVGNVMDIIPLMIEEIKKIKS
# T1 sequence (A0A1Z3CJK5 1-259): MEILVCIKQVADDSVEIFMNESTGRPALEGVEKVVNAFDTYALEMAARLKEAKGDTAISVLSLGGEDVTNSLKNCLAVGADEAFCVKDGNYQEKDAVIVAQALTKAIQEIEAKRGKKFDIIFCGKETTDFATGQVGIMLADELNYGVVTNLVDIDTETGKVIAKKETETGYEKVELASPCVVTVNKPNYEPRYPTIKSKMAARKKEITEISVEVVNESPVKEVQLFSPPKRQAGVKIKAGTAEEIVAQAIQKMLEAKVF
# Experiment: UV-visible spectrum; FAD released by heat denaturation
# Type: binding
# Details: copurified; FAD in alpha-subunit; FAD to protein ratio determined
smiles,measurement,value
Cc1cc2nc3c(=O)[nH]c(=O)nc-3n(C[C@H](O)[C@H](O)[C@H](O)COP(=O)(O)OP(=O)(O)OC[C@H]3O[C@@H](n4cnc5c(N)ncnc54)[C@H](O)[C@@H]3O)c2cc1C [FAD],UV-visible spectrum; FAD released by heat denaturation,diagnostic of the FAD cofactor

# Source: paper PMC12630350, “Direct coupling of lactate oxidation with butyryl-CoA formation via a canonical electron transfer flavoprotein in Fusobacterium nucleatum” (The Journal of Biological Chemistry, 2025)
